Data taken from ChEMBL document CHEMBL4265930, “Dual potent ALK and ROS1 inhibitors combating drug-resistant mutants: Synthesis and biological evaluation of aminopyridine-containing diarylaminopyrimidine derivatives” (Eur J Med Chem, 2018).
Activity calls are given as the source filed them. The rule behind the calls is not given here.

Tests used:
[1] = target: T1, ALK tyrosine kinase receptor (Homo sapiens, UniProt Q9UM73); assay: Inhibition of ALK in human KARPAS299 cells assessed as decrease in STAT3 phosphorylation after 24 hrs by Western blot analysis; format: cell-based
[2] = system: ALK tyrosine kinase receptor (Homo sapiens), Q9UM73 [L1196M]; assay: Potency index, ratio of ceritinib IC50 to compound IC50 for human N-terminal GST-tagged ALK L1196M mutant cytoplasmic domain (1058 to 1620 residues) expressed in baculovirus expression system
A549 = assay: cells; details: Homo sapiens, A549, 72 h
Description: Antiproliferative activity against human A549 cells after 72 hrs by MTT assay

[3] = target: T1, ALK tyrosine kinase receptor; assay: Inhibition of ALK phosphorylation in human KARPAS299 cells after 24 hrs by Western blot analysis; format: cell-based
KARPAS-299 [4] = assay: Induction of apoptosis in human KARPAS299 cells assessed as early apoptotic cells at 25 to 50 nM after 24 hrs by Hoechst 33258 staining based inverted fluorescence microscopy; format: functional, cell-based
[5] = target: ALK tyrosine kinase receptor (Homo sapiens, UniProt Q9UM73, G1202R)
KARPAS-299 [6] = assay: cells; details: Homo sapiens, KARPAS-299, 72 h
Description: Antiproliferative activity against human KARPAS299 cells harboring NPM-ALK after 72 hrs by MTT assay

[7] = target: T1, ALK tyrosine kinase receptor; assay: Inhibition of ALK in human KARPAS299 cells assessed as decrease in Akt phosphorylation after 24 hrs by Western blot analysis; format: cell-based
[8] = target: Epidermal growth factor receptor (Homo sapiens, UniProt P00533)
Chain of Epidermal growth factor receptor (P00533 whole entry): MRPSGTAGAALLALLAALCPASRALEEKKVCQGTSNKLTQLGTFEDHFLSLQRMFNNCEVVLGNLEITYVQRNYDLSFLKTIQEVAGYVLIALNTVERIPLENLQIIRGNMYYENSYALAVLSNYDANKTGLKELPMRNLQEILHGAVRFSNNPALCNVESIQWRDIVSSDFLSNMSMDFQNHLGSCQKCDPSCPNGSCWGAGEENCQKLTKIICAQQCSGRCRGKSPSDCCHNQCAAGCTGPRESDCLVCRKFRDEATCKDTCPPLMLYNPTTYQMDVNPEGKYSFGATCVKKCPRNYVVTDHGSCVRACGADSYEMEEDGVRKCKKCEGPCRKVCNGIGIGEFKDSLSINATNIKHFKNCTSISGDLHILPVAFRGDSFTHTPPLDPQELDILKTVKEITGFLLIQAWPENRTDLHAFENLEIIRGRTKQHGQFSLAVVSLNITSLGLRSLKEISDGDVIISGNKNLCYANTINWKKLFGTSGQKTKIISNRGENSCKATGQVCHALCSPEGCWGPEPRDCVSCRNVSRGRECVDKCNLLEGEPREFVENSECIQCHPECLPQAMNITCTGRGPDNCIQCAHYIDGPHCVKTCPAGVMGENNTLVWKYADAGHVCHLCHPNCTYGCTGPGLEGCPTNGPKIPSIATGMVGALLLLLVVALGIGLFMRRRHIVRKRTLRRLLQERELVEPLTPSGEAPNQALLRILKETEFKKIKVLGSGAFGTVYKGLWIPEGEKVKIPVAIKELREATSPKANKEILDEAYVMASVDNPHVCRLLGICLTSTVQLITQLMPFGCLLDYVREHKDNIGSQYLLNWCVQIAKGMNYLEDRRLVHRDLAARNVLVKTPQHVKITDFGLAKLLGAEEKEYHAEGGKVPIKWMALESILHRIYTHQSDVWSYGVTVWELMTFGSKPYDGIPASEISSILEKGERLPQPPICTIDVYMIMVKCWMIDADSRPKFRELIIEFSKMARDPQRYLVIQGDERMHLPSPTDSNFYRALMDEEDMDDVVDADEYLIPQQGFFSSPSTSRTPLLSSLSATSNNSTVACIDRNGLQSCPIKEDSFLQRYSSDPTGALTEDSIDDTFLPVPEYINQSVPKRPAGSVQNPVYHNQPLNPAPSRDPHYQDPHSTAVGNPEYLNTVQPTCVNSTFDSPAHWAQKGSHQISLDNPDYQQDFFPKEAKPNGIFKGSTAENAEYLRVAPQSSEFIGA
Description: Inhibition of human N-terminal GST-tagged EGFR cytoplasmic domain (669 to 1210 residues) expressed in baculovirus expression system after 1 hr by mobility shift assay

[9] = target: ALK tyrosine kinase receptor (Homo sapiens, UniProt Q9UM73, L1196M)
Description: Inhibition of human N-terminal GST-tagged ALK L1196M mutant cytoplasmic domain (1058 to 1620 residues) expressed in baculovirus expression system after 1 hr by mobility shift assay

NCI-H2228 = assay: cells; details: Homo sapiens, NCI-H2228, 72 h
Description: Antiproliferative activity against human NCI-H2228 cells harboring EML4-ALK after 72 hrs by MTT assay

[10] = target: Proto-oncogene tyrosine-protein kinase ROS (Homo sapiens, UniProt P08922); assay: Inhibition of human N-terminal GST-tagged ROS cytoplasmic domain (1883 to 2347 residues) expressed in baculovirus expression system after 1 hr by mobility shift assay
Chain of Proto-oncogene tyrosine-protein kinase ROS (P08922 whole entry, the tested form may be a part): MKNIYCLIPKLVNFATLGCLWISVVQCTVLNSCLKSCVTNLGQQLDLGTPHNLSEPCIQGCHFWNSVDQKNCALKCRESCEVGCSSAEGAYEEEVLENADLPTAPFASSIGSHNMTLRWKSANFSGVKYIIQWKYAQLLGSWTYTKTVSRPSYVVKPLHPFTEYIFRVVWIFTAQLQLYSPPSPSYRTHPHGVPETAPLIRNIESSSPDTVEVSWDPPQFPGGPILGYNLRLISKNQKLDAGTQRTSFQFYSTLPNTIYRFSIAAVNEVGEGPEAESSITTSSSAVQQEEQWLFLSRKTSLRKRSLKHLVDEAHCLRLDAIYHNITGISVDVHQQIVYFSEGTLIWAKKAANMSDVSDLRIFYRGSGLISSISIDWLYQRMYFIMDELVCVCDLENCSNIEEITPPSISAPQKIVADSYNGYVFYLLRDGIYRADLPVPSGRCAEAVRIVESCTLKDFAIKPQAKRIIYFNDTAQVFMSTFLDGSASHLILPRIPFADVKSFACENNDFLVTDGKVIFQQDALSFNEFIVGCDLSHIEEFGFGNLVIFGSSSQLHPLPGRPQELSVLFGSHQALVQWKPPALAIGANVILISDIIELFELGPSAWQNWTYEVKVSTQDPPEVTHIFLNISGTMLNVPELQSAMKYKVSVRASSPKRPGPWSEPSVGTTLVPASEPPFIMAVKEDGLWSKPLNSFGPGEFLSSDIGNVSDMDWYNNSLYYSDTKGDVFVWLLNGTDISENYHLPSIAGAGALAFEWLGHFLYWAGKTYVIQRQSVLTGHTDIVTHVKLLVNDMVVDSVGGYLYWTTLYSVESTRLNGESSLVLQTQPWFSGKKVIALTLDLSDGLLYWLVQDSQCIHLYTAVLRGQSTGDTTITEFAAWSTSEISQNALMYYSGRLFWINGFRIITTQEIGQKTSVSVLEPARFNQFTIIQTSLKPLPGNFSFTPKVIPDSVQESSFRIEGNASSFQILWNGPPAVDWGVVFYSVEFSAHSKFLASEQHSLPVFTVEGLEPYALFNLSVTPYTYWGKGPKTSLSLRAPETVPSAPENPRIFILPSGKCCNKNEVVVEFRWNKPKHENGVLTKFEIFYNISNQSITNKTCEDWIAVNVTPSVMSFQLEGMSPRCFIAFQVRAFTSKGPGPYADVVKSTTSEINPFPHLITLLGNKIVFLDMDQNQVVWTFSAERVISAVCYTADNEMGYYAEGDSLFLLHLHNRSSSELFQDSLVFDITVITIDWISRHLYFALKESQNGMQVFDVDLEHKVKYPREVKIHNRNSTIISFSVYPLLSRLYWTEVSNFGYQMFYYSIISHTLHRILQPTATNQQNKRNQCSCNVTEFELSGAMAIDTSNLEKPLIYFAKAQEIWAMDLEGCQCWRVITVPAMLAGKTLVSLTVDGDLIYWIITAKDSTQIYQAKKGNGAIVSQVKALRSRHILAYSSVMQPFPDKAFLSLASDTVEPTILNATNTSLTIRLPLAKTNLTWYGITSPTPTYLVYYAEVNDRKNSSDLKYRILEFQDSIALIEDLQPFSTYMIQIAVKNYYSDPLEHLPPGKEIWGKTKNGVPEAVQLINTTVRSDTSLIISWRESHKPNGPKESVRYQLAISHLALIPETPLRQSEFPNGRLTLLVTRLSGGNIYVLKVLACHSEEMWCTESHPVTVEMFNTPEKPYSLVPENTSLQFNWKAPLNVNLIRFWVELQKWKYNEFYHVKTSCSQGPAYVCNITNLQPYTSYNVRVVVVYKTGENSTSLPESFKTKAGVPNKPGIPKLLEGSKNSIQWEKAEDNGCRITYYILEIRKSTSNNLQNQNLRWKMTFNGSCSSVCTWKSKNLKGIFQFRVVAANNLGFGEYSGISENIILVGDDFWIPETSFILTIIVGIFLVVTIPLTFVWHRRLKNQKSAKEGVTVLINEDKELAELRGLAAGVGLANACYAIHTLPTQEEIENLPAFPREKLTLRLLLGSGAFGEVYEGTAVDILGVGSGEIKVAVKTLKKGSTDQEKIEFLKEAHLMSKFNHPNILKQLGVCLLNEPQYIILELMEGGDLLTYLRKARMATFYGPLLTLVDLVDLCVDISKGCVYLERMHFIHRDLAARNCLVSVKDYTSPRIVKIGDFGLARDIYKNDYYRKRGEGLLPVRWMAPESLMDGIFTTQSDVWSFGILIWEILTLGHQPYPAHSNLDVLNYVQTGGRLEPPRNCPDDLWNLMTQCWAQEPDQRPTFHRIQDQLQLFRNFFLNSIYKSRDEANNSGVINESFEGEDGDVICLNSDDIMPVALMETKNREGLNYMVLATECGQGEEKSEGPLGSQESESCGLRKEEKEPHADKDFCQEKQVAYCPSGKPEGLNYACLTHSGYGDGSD

[11] = system: ALK tyrosine kinase receptor (Homo sapiens), Q9UM73 [G1202R]; assay: Potency index, ratio of ceritinib IC50 to compound IC50 for human N-terminal GST-tagged ALK G1202R mutant cytoplasmic domain (1058 to 1620 residues) expressed in baculovirus expression system
KARPAS-299 [12] = assay: Induction of apoptosis in human KARPAS299 cells assessed as late apoptotic cells at 25 to 50 nM after 24 hrs by AO/EB double staining based inverted fluorescence microscopy; format: functional, cell-based
HCC78 = assay: Antiproliferative activity against human HCC78 cells harboring SLC34A2-ROS1 after 72 hrs by MTT assay; format: functional, cell-based; details: HCC78, 72 h
[13] = target: T1, ALK tyrosine kinase receptor
Target sequence in this assay (Q9UM73 whole entry, the tested form may be a part): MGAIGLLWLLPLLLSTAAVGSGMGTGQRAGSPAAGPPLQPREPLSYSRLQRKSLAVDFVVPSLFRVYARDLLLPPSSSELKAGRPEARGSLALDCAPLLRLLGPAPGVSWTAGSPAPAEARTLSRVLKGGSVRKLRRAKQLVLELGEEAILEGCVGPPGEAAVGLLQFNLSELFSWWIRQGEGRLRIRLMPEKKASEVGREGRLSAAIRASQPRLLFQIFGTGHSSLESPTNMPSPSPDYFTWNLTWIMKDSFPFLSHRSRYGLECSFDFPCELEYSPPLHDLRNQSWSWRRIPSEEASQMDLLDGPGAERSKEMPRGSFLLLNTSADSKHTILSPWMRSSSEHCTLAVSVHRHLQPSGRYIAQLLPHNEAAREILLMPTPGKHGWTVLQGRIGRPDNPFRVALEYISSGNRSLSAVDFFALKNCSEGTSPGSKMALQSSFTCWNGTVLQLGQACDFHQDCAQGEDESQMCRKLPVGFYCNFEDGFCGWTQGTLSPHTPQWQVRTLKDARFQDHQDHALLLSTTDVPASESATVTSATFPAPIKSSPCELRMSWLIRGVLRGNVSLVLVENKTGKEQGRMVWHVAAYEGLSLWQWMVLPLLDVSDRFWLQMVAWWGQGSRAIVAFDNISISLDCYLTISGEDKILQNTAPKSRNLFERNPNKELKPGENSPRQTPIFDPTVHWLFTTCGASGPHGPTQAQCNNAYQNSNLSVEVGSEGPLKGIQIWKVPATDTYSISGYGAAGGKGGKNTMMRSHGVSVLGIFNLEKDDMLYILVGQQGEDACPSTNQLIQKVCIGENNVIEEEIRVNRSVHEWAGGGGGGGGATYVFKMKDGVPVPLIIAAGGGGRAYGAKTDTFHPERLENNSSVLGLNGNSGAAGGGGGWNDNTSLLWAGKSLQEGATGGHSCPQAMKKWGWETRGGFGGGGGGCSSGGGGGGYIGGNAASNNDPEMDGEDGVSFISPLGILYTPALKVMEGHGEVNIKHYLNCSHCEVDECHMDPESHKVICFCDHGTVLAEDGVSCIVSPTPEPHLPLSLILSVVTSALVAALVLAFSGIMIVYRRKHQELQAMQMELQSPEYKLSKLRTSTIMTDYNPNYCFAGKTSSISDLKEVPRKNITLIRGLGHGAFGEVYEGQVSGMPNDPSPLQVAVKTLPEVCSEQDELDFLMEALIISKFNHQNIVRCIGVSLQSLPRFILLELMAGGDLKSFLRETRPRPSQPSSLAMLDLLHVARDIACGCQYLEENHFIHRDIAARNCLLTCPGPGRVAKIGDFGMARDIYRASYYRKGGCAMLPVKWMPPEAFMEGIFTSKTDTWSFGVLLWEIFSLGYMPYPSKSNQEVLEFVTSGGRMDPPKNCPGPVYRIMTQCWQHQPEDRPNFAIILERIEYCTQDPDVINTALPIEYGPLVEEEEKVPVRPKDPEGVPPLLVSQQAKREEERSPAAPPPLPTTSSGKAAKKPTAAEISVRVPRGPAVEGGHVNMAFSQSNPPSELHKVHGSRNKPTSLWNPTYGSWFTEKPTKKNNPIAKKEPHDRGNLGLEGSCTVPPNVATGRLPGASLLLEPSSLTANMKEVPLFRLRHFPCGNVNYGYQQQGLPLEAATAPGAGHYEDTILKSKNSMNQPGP
Description: Inhibition of human N-terminal GST-tagged ALK cytoplasmic domain (1058 to 1620 residues) expressed in baculovirus expression system after 1 hr by mobility shift assay

BaF3 = assay: cells; details: Mus musculus, BaF3, 72 h

SMILES	inhibition [1]	Ratio IC50 [2]	IC50 (A549) [µM]	inhibition [3]	Activity (KARPAS-299 [4])	IC50 [5] [µM]	IC50 (KARPAS-299 [6]) [µM]	inhibition [7]	IC50 [8] [µM]	IC50 [9] [µM]	IC50 (NCI-H2228) [µM]	IC50 [10] [µM]	Ratio IC50 [11]	Activity (KARPAS-299 [12])	IC50 (HCC78) [µM]	IC50 [13] [µM]	IC50 (BaF3) [µM]
COc1nc(N2CCN(C)CC2)ccc1Nc1ncc(Cl)c(Nc2ccccc2NS(C)(=O)=O)n1	Dose-dependent effect	11 to 23	> 1	Dose-dependent effect	Active	3.9	0.01	Dose-dependent effect	> 1000	1.3	0.012	2.3	11 to 23	Active	0.043	2.1	0.03
COc1nc(N2CCN(C)CC2)ccc1Nc1ncc(Cl)c(Nc2ccccc2NS(=O)(=O)C2CC2)n1			> 1			6	0.028		> 1000	3.9	0.06	4.6			0.27	3.9	0.09
COc1nc(N2CCCC2)ccc1Nc1ncc(Cl)c(Nc2ccccc2NS(C)(=O)=O)n1			0.71				0.08				0.17				0.24		0.13
COc1nc(N2CCCCC2)ccc1Nc1ncc(Cl)c(Nc2ccccc2NS(=O)(=O)C2CC2)n1			> 1				0.48				0.27				0.39		0.63
CC(C)Oc1nc(N2CCCC2)ccc1Nc1ncc(Cl)c(Nc2ccccc2NS(C)(=O)=O)n1			0.82				0.31				0.41				0.09		0.85
CC(C)Sc1nc(N2CCCC2)ccc1Nc1ncc(Cl)c(Nc2ccccc2NS(C)(=O)=O)n1			> 1				0.75				0.98				0.32		> 1
CCN1CCN(c2ccc(Nc3ncc(Cl)c(Nc4ccccc4NS(C)(=O)=O)n3)c(OC)n2)CC1			> 1				0.88				0.95				0.74		> 1
COc1nc(N2CCN(CCO)CC2)ccc1Nc1ncc(Cl)c(Nc2ccccc2NS(=O)(=O)C2CC2)n1			> 1				0.035				0.018				0.13		0.04
Cc1cc(Nc2ncc(Cl)c(Nc3ccccc3S(=O)(=O)C(C)C)n2)c(OC(C)C)cc1C1CCNCC1 [CERITINIB]			> 1				0.041				0.026						> 1
COc1nc(N2CCSCC2)ccc1Nc1ncc(Cl)c(Nc2ccccc2NS(C)(=O)=O)n1			0.85			7.9	0.027		> 1000	1.6	0.024	6.1			0.08	2.8	0.05
CCN(CC)c1ccc(Nc2ncc(Cl)c(Nc3ccccc3NS(=O)(=O)C3CC3)n2)c(OC)n1			> 1				0.46				0.64				0.26		0.12
COc1nc(N2CCN(CCO)CC2)ccc1Nc1ncc(Cl)c(Nc2ccccc2NS(C)(=O)=O)n1			> 1			7.8	0.038		> 1000	2.2	0.07	3.4			0.11	3.2	0.09
C/C=C/C(=O)Nc1ccccc1Nc1nc(Nc2ccc(N3CCNC(C)C3)nc2OC)ncc1Cl (stereo unspecified)			> 1				0.58				> 1				0.92		> 1
COc1nc(N2CC(O)C2)ccc1Nc1ncc(Cl)c(Nc2ccccc2NS(=O)(=O)C2CC2)n1			> 1				0.11				0.05				0.09		0.07
CN1CCN(c2ccc(Nc3ncc(Cl)c(Nc4ccccc4NS(=O)(=O)C4CC4)n3)cn2)CC1			> 1				0.06				0.14				0.09		0.44
COc1nc(N2CCCC2)ccc1Nc1ncc(Cl)c(Nc2ccccc2NS(=O)(=O)C2CC2)n1			> 1				0.12				0.41				0.24		> 1
C/C=C/C(=O)Nc1ccccc1Nc1nc(Nc2ccc(N3CCCCC3)nc2OC)ncc1Cl			> 1				0.08				0.36				0.21		0.23
COc1nc(N2CC(O)C2)ccc1Nc1ncc(Cl)c(Nc2ccccc2NS(C)(=O)=O)n1			> 1			5.2	0.06		> 1000	2	0.042	1.6			0.035	1.4	0.032
CC(C)Sc1nc(N2CCN(C)CC2)ccc1Nc1ncc(Cl)c(Nc2ccccc2NS(C)(=O)=O)n1			> 1				0.34				0.42				0.13		> 1
CC(C)Oc1nc(N2CCN(C)CC2)ccc1Nc1ncc(Cl)c(Nc2ccccc2NS(C)(=O)=O)n1			0.88			9.4	0.018		> 1000	4.8	0.046	2			0.26	4.2	0.88
COc1nc(N2CCNC(C)C2)ccc1Nc1ncc(Cl)c(Nc2ccccc2NS(C)(=O)=O)n1 (stereo unspecified)			> 1				0.39				0.49				0.44		> 1
COc1nc(N2CCOCC2)ccc1Nc1ncc(Cl)c(Nc2ccccc2NS(=O)(=O)C2CC2)n1			> 1				0.055				0.09				0.48		0.17
CS(=O)(=O)Nc1ccccc1Nc1nc(Nc2ccc(N3CCCC3)nc2)ncc1Cl			> 1				0.08				0.48				0.08		0.74
COc1nc(N2CCN(C)CC2)ccc1Nc1ncc(Cl)c(Nc2ccccc2NC(C)=O)n1			0.7				0.027				0.16				0.14		0.09
CCN(CC)c1ccc(Nc2ncc(Cl)c(Nc3ccccc3NS(C)(=O)=O)n2)c(OC)n1			> 1				0.06				0.36				0.31		0.18
C/C=C/C(=O)Nc1ccccc1Nc1nc(Nc2ccc(N3CCN(C)CC3)nc2OC)ncc1Cl			> 1				0.072				0.27				0.41		0.11
CN1CCN(c2ccc(Nc3ncc(Cl)c(Nc4ccccc4NS(C)(=O)=O)n3)cn2)CC1			0.85				0.04				0.08				0.07		0.78
C/C=C/C(=O)Nc1ccccc1Nc1nc(Nc2ccc(N3CCCC3)nc2OC)ncc1Cl			> 1				0.22				0.38				0.16		0.3
COc1nc(N2CCCCC2)ccc1Nc1ncc(Cl)c(Nc2ccccc2NS(C)(=O)=O)n1			> 1				0.04				0.13				0.19		0.33
